Reference: US11655235B2, “Pyrrolidine and piperidine compounds” (YUHAN CORPORATION, priority 2019, dated 2023)
Like-named read-outs stand apart in the source and are kept apart here.

Columns and labels:
Assay type in all cases: biochemical
recombinant human PREP = biological target: T1, recombinant human PREP (Homo sapiens, UniProt P48147); assay: PREP inhibition, fluorogenic substrate Z-Gly-Pro-AMC; conditions: Inhibitory Activity (IC50, nM) PREP
T1 construct: purchased R&D System
T1 sequence (P48147 1-710): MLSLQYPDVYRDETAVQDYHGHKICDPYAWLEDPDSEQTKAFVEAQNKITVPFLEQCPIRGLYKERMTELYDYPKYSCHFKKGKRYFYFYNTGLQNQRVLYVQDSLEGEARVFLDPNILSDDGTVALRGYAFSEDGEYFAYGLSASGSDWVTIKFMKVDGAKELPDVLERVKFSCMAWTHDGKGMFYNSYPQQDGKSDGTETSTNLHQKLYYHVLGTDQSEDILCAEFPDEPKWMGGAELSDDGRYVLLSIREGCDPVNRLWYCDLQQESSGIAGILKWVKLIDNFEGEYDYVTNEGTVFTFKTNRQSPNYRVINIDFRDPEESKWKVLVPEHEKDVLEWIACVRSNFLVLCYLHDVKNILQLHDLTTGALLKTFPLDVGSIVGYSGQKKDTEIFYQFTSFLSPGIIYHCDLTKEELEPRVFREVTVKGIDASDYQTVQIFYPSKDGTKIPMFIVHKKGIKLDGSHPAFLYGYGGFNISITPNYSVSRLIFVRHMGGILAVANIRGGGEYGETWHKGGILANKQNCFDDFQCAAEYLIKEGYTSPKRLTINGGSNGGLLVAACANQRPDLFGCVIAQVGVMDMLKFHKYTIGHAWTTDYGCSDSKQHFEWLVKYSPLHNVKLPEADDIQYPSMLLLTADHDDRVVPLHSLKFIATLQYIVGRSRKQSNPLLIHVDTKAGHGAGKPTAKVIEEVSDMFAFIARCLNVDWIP
Method in brief: (§1)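 Enzyme per reaction: 50 ng DPP9, 20 ng DPP8, 10 ng each DPP7 and PREP. Compounds were serially diluted (8 points, up to 0.5% DMSO) and incubated at 25 °C.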

recombinant human DPP9 = biological target: T2, recombinant human DPP9 (Homo sapiens, UniProt Q86TI2); assay: DPP9 inhibition, fluorogenic substrate H-Gly-Pro-AMC
T2 construct: purchased R&D Systems
T2 sequence (Q86TI2 whole entry): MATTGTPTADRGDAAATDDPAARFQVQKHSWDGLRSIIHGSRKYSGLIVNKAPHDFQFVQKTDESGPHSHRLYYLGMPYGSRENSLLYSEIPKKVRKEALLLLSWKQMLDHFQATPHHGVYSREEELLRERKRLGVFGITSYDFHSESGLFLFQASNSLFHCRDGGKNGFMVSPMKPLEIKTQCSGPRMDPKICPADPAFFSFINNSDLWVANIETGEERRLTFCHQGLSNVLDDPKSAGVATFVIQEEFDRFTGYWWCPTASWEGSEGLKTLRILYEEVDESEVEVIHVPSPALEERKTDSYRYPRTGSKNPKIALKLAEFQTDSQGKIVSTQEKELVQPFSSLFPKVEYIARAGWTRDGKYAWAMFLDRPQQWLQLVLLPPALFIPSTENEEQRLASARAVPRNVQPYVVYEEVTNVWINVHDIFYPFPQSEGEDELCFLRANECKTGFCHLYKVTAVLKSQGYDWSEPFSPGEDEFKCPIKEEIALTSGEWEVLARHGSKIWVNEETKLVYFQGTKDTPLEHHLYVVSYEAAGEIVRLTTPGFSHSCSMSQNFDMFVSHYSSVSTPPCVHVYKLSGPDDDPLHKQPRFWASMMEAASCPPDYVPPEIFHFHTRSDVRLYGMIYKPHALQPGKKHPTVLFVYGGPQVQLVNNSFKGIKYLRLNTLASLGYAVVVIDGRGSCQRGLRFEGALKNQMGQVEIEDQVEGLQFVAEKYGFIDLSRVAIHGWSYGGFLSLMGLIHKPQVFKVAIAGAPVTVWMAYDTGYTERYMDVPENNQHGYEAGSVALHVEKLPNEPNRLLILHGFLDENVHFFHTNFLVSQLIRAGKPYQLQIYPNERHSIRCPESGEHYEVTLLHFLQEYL
Method in brief: as §1

Recombinant human FAP = biological target: T3, Recombinant human FAP (Homo sapiens, UniProt Q12884); assay: FAP inhibition, fluorogenic substrate Z-Gly-Pro-AMC
T3 construct: purchased R&D systems
T3 sequence (Q12884 1-760): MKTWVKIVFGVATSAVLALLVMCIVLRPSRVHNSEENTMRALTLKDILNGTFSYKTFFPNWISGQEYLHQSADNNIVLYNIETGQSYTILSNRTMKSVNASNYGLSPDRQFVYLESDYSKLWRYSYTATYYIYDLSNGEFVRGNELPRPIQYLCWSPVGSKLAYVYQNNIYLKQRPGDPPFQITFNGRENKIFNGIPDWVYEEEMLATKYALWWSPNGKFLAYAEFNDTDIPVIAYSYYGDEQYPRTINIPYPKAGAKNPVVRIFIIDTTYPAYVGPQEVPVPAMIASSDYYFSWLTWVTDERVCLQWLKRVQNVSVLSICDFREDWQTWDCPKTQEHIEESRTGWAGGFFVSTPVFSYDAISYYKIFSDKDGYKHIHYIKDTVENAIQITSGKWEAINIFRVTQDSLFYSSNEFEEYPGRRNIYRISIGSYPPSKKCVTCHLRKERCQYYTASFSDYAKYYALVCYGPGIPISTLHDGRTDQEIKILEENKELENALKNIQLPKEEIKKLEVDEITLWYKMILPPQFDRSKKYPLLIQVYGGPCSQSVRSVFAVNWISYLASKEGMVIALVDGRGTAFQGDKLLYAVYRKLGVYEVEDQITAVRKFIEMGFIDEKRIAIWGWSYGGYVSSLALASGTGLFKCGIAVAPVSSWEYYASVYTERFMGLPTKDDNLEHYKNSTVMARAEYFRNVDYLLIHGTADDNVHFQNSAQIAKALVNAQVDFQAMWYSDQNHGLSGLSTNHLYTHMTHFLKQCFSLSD
Method in brief: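 Recombinant human FAP, 10 ng per reaction, in 50 mM Tris pH 7.5 with 1 M NaCl and 1 mg/ml BSA at 25° C; substrate Z-Gly-Pro-AMC, ≤0.1% DMSO. AMC fluorescence read at ex 380/em 460 nm; % signal-rate decrease vs no-inhibitor control, 8-point curves fitted to a four-parameter logistic for IC50.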

recombinant human DPP8 = biological target: T4, recombinant human DPP8 (Homo sapiens, UniProt Q6V1X1); assay: DPP8 inhibition, fluorogenic substrate Z-Ala-Pro-AMC
T4 construct: purchased PBS Bioscience
T4 sequence (Q6V1X1 whole entry): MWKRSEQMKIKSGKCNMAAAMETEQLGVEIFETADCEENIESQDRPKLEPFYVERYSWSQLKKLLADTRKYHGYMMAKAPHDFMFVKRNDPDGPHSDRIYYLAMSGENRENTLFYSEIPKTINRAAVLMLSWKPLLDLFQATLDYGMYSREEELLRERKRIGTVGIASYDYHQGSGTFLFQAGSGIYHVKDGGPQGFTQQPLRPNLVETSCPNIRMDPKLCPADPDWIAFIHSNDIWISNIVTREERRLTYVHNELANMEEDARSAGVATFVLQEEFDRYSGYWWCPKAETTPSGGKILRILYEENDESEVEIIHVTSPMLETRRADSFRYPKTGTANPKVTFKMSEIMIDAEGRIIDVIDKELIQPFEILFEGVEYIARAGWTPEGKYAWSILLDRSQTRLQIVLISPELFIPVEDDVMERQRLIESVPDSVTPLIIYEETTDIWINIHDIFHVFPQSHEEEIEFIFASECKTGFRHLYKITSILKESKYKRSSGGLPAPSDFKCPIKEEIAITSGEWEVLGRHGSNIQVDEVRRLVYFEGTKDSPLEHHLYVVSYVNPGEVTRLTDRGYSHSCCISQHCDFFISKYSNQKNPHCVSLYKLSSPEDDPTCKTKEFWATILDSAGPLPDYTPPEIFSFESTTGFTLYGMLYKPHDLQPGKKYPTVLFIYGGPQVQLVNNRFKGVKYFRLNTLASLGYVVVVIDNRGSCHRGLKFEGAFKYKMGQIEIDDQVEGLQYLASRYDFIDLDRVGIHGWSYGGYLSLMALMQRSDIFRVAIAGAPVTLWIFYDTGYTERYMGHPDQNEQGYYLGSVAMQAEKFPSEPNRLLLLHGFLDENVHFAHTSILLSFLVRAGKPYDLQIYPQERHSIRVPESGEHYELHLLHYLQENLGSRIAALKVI
Method in brief: as §1

recombinant human DPP7 = biological target: T5, recombinant human DPP7 (Homo sapiens, UniProt Q9UHL4); assay: DPP7 inhibition, fluorogenic substrate Lys-Pro-AMC
T5 construct: purchased R&D Systems
Method in brief: as §1

DPP4 = DPP4 (Homo sapiens, UniProt P27487); assay: DPP4 inhibition, fluorogenic substrate H-Gly-Pro-AMC; design: purchased R&D Systems; conditions: for inhibition at 1 µM: read-out: hDPP4 inhibition % at 1 μM
Chain of DPP4 (P27487 whole entry): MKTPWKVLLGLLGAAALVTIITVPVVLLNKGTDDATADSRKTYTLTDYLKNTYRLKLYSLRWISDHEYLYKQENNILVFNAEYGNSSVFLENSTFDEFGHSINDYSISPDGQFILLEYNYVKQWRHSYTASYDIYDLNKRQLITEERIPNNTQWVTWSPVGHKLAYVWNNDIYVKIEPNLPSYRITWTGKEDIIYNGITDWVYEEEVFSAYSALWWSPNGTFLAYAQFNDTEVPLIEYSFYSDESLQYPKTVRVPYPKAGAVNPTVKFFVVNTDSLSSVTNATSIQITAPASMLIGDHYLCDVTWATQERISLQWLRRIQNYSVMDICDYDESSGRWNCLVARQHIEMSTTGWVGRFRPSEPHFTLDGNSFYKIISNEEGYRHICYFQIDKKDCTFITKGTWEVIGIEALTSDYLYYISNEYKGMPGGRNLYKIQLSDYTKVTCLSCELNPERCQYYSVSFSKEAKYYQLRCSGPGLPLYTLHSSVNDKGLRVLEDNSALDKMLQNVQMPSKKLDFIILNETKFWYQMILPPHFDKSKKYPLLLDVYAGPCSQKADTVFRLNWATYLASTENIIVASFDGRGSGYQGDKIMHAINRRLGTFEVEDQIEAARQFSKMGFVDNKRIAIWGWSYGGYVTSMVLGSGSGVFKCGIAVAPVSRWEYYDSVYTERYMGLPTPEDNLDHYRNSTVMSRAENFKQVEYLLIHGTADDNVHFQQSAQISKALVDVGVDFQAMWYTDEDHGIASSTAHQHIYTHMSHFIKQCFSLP

[1] = recombinant human FAP, substrate Z-Gly-Pro-AMC
[2] = 25° C., Z-Gly-Pro-AMC substrate
[3] = 25° C., H-Gly-Pro-AMC substrate
[4] = 25° C., Z-Ala-Pro-AMC substrate

Row | SMILES | IC50 (recombinant human PREP; recombinant human PREP) | IC50 (recombinant human DPP9; recombinant human DPP9) | IC50 (Recombinant human FAP; [1]) | IC50 (recombinant human DPP8; recombinant human DPP8) | IC50 (recombinant human DPP7; recombinant human DPP7) | IC50 (DPP4; recombinant human DPP4) | IC50 (recombinant human PREP; [2]) | IC50 (recombinant human DPP9; [3]) | IC50 (Recombinant human FAP; [2]) | IC50 (recombinant human DPP8; [4]) | IC50 (recombinant human DPP7) | IC50 (DPP4; [3]) | inhibition at 1 µM (DPP4)
1 | N#C[C@@H]1C[C@H](F)CN1C(=O)CN1CCC(Nc2cccc3cnccc23)CC1 [Example 340, (2S,4S)-4-fluoro-1-[2-[4-(5-isoquinolylamino)-1-piperidyl]acetyl]pyrrolidine-2-carbonitrile] | 7850 nM | 5.31 µM | 0.0051 µM | 2.4 µM | 0.523 µM | 6.5 µM |  |  |  |  |  |  | 
2 | COc1ccc(NC2CCN(CC(=O)N3CCC[C@H]3C#N)CC2)c2cccnc12 [Example 125, (S)-1-(2-(4-((8-methoxyquinolin-5-yl)amino)piperidin-1-yl)acetyl)pyrrolidine-2-carbonitrile] |  |  |  |  |  |  | 28900 nM | > 100 µM | 0.0055 µM | 33.7 µM | 5.55 µM | > 10 µM | 
3 | CN(c1ccc2cnccc2c1)C1CCN(CC(=O)N2CCC[C@H]2C#N)CC1 [Example 314, (2S)-1-(2-(4-(isoquinolin-6-yl(methyl)amino)piperidin-1-yl)acetyl)pyrrolidine-2-carbonitrile] | 531 nM | 34.9 µM | 0.0087 µM | > 100 µM | 2.47 µM | > 10 µM |  |  |  |  |  |  | 
4 | N#C[C@@H]1CCCN1C(=O)CN1CC[C@H](NC(=O)c2ccc3ccoc3c2)C1 [Example 57, N—((S)-1-(2-((S)-2-cyanopyrrolidin-1-yl)-2-oxoethyl)pyrrolidin-3-yl)benzofuran-6-carboxamide] |  |  |  |  |  |  | 10200 nM | 26.5 µM | 0.0251 µM | 6 µM | 0.499 µM |  | 0.6%
5 | N#C[C@@H]1C[C@H](F)CN1C(=O)CN1CCC(Oc2cc(C(F)(F)F)nc3ccc(F)cc23)CC1 [Example 413, (2S,4S)-4-fluoro-1-[2-[4-[[6-fluoro-2-(trifluoromethyl)-4-quinolyl]oxy]-1-piperidyl]acetyl]pyrrolidine-2-carbonitrile] | 26500 nM | > 100 µM | 0.003 µM | 18.2 µM | > 100 µM | > 10 µM |  |  |  |  |  |  | 
6 | Cc1ccc2ncccc2c1N[C@H]1CCN(CC(=O)N2CCC[C@H]2C#N)C1 [Example 239, (2S)-1-[2-[(3S)-3-[(6-methyl-5-quinolyl)amino]pyrrolidin-1-yl]acetyl]pyrrolidine-2-carbonitrile] | 9980 nM | 43.9 µM | 0.006 µM | 74.3 µM | 7.28 µM | > 10 µM |  |  |  |  |  |  | 
7 | N#C[C@@H]1C[C@H](F)CN1C(=O)CN1CCC(Nc2cccc3c(Cl)nccc23)CC1 [Example 351, (2S,4S)-1-[2-[4-[(1-chloro-5-isoquinolyl)amino]-1-piperidyl]acetyl]-4-fluoro-pyrrolidine-2-carbonitrile] | 3280 nM | 4.53 µM | 0.0034 µM | 2.81 µM | 0.842 µM | 6.73 µM |  |  |  |  |  |  | 
8 | N#C[C@@H]1C[C@H](F)CN1C(=O)CN1CCC(Nc2cc(F)cc3ncccc23)CC1 [Example 132, (2S,4S)-4-fluoro-1-(2-(4-((7-fluoroquinolin-5-yl)amino)piperidin-1-yl)acetyl)pyrrolidine-2-carbonitrile] |  |  |  |  |  |  | 2820 nM | 3.64 µM | 0.00217 µM | 13.9 µM | 0.492 µM | 7.43 µM | 
9 | N#C[C@@H]1C[C@H](F)CN1C(=O)CN1CCC(Nc2cncc3ccccc23)CC1 [Example 339, (2S,4S)-4-fluoro-1-[2-[4-(4-isoquinolylamino)-1-piperidyl]acetyl]pyrrolidine-2-carbonitrile] | 3590 nM | > 30 µM | 0.0114 µM | > 10 µM | 0.555 µM | 8.79 µM |  |  |  |  |  |  | 
10 | N#C[C@@H]1CCCN1C(=O)CN1CC[C@H](NC(=O)c2cc3ccccc3s2)C1 [Example 36, N—((S)-1-(2-((S)-2-cyanopyrrolidin-1-yl)-2-oxoethyl)pyrrolidin-3-yl)benzo[b]thiophene-2-carboxamide] |  |  |  |  |  |  | 6450 nM | > 100 µM | 0.0327 µM | 21.8 µM | 3.55 µM | > 1 µM | 
11 | COc1ccc2nccc(O[C@H]3CCN(CC(=O)N4C[C@@H](F)C[C@H]4C#N)C3)c2c1 [Example 299, (2S,4S)-4-fluoro-1-[2-[(3S)-3-[(6-methoxy-4-quinolyl)oxy]pyrrolidin-1-yl]acetyl]pyrrolidine-2-carbonitrile] | 1410 nM | 8.19 µM | 0.0017 µM | 13.1 µM | 9.84 µM | > 10 µM |  |  |  |  |  |  | 
12 | N#C[C@@H]1CC(F)(F)CN1C(=O)CN1CC[C@H](Nc2ccc3ccccc3c2)C1 [Example 15, (S)-4,4-difluoro-1-(2-((S)-3-(naphthalen-2-ylamino)pyrrolidin-1-yl)acetyl)pyrrolidine-2-carbonitrile] |  |  |  |  |  |  | > 100000 nM | 48.8 µM | 0.0123 µM | 0.253 µM | 0.196 µM |  | 9.7%
13 | CN(c1ccc2ccncc2c1)C1CCN(CC(=O)N2C[C@@H](F)C[C@H]2C#N)CC1 [Example 319, (2S,4S)-4-fluoro-1-[2-[4-[7-isoquinolyl(methyl)amino]-1-piperidyl]acetyl]pyrrolidine-2-carbonitrile] | 503 nM | 5.04 µM | 0.0018 µM | 3.82 µM | 1.32 µM | > 10 µM |  |  |  |  |  |  | 
14 | N#C[C@@H]1CC(F)(F)CN1C(=O)CN1CC[C@H](Nc2cncc3ccccc23)C1 [Example 8, (S)-4,4-difluoro-1-(2-((S)-3-(isoquinolin-4-ylamino)pyrrolidin-1-yl)acetyl)pyrrolidine-2-carbonitrile] |  |  |  |  |  |  | > 100000 nM | 0.488 µM | 0.0011 µM | 5.79 µM | < 0.03 µM | > 1 µM | 
15 | CN(c1ccc2ncccc2c1)C1CCN(CC(=O)N2CCC[C@H]2C#N)CC1 [Example 310, (2S)-1-[2-[4-[methyl(6-quinolyl)amino]-1-piperidyl]acetyl]pyrrolidine-2-carbonitrile] | 740 nM | 66.4 µM | 0.0053 µM | > 100 µM | 4.33 µM | > 10 µM |  |  |  |  |  |  | 
16 | N#C[C@@H]1CCCN1C(=O)CN1CC[C@H](Nc2cccc3ncccc23)C1 [Example 27, (S)-1-(2-((S)-3-(quinolin-5-ylamino)pyrrolidin-1-yl)acetyl)pyrrolidine-2-carbonitrile] |  |  |  |  |  |  | 12100 nM | 27.4 µM | 0.00162 µM | 20.7 µM | 1.22 µM |  | 5.4%
